Read-outs that look alike come from different tables or passages of the source.

In general, IC50 refers to the concentration at which inhibition is half-maximal.

In assay [1] the target is Mcl-1 protein (UniProtKB primary accession number: Q07820) (Homo sapiens, UniProt Q07820). Put plainly: Inhibition of Mcl-1 by fluorescence polarisation, Method 1. Type of assay: binding. The settings on record: read-out: IC50 (M) Mcl-1 FP. The method in brief: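 Buffer of 10 mM HEPES pH 7.4 with 150 mM NaCl and 0.05% Tween 20 held 5 nM Mcl-1 and 1 nM fluorescein-tagged ligand (final). Compounds were tested as 11-point serial dilutions at 5% final DMSO, and binding was read by FP.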
Chain of Mcl-1 protein (Q07820 whole entry): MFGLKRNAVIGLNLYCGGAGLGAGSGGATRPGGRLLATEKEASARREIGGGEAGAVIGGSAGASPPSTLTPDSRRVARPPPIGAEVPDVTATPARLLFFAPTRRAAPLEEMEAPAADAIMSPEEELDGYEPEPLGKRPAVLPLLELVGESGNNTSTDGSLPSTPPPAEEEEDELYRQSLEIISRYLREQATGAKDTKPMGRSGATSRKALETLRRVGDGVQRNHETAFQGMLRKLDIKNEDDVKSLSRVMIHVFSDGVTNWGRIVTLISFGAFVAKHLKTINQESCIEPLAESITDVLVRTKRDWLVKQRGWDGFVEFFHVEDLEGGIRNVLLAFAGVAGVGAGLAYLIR

Assay [2] relates to H929 multiple myeloma tumour line. Nature of the assay: In vitro cytotoxicity, Microculture Tetrazolium Assay. The settings on record: H929 cells, 48 hours exposure, MTT, read-out: IC50 (μM) MTT H929. It counts as cell-based. The protocol: The cytotoxicity studies were carried out on the H929 multiple myeloma tumour line.
The cells are distributed onto microplates and exposed to the test compounds for 48 hours.

[3] abbreviates: fluorescence polarisation, Method 1, or Method 2.
[4] abbreviates: fluorescence polarisation test, Method 2 values are underlined in the patent (underlining not visible here).

Regarding `COc1cccc(-c2sc3ncnc(OC(Cc4ccccc4OC)C(=O)O)c3c2-c2ccc(OCCN3CCN(C)CC3)c(Cl)c2C)c1` [Example 554, (2R)-2-{[(5Sa)-5-{3-chloro-2-methyl-4-[2-(4-methylpiperazin-1-yl)ethoxy]phenyl}-6-(3-methoxyphenyl)thieno[2,3-d]pyrimidin-4-yl]oxy}-3-(2-methoxyphenyl)propanoic acid], the IC50 was 2.4e-08 M in assay [1] (setting [3]) and 0.177 µM in assay [2] (Homo sapiens, NCI-H929, 48 h).
The corresponding values for `COc1ccccc1-c1nccc(COc2ccccc2CC(Oc2ncnc3sc(-c4ccc(OCc5ccn(C)n5)cc4)c(-c4ccc(OCCN5CCN(C)CC5)c(Cl)c4C)c23)C(=O)O)n1` [Example 776, (2R)-2-[((5Sa)-5-{3-chloro-2-methyl-4-[2-(4-methylpiperazin-1-yl)ethoxy]phenyl}-6-{4-[(1-methyl-1H-pyrazol-3-yl)methoxy]phenyl}thieno[2,3-d]pyrimidin-4-yl)oxy]-3-(2-{[2-(2-methoxyphenyl)pyrimidin-4-yl]methoxy}phenyl)propanoic acid] are 9.48e-10 M and 0.007 µM.
In the case of `Cc1c(-c2c(-c3ccc(F)cc3)sc3ncnc(OC(Cc4ccccc4OCC(F)F)C(=O)O)c23)ccc(OCCN2CCN(C)CC2)c1Cl` [Example 4, (2R)-2-{[(5Sa)-5-{3-chloro-2-methyl-4-[2-(4-methylpiperazin-1-yl)ethoxy]phenyl}-6-(4-fluorophenyl)thieno[2,3-d]pyrimidin-4-yl]oxy}-3-[2-(2,2-difluoroethoxy)phenyl]propanoic acid], the IC50 in assay [1] (setting [4]) came to 1.6e-08 M; in assay [2] (Homo sapiens, NCI-H929, 48 h), 0.192 µM.
Regarding `CCc1sc2ncnc(OC(Cc3ccccc3)C(=O)O)c2c1-c1ccc(OCCn2ccnc2)c(Cl)c1C` [Example 418, (2R)-2-[((5Sa)-5-{3-chloro-4-[2-(1H-imidazol-1-yl)ethoxy]-2-methylphenyl}-6-ethylthieno[2,3-d]pyrimidin-4-yl)oxy]-3-phenylpropanoic acid], the IC50 in assay [1] (setting [3]) amounted to 5.6e-08 M; in assay [2] (Homo sapiens, NCI-H929, 48 h) it was 13.3 µM.
Take `CCOc1nccc(COc2ccccc2CC(Oc2ncnc3sc(-c4ccc(F)cc4)c(-c4ccc(OCCN(C)C)c(Cl)c4C)c23)C(=O)O)n1` [Example 130, (2R)-2-{[(5Sa)-5-{3-chloro-4-[2-(dimethylamino)ethoxy]-2-methylphenyl}-6-(4-fluorophenyl)thieno[2,3-d]pyrimidin-4-yl]oxy}-3-{2-[(2-ethoxypyrimidin-4-yl)methoxy]phenyl}propanoic acid]: the half-inhibitory concentration (IC50) came to 3.4e-09 M in assay [1] (setting [4]) and 0.065 µM in assay [2] (Homo sapiens, NCI-H929, 48 h).
In the case of `COCC#Cc1sc2ncnc(OC(Cc3ccccc3OCc3ccnc(-c4ccccc4OC)n3)C(=O)O)c2c1-c1ccc(OCCN2CCN(C)CC2)c(Cl)c1C` [Example 784, (2R)-2-{[(5Sa)-5-{3-chloro-2-methyl-4-[2-(4-methylpiperazin-1-yl)ethoxy]phenyl}-6-(3-methoxyprop-1-yn-1-yl)thieno[2,3-d]pyrimidin-4-yl]oxy}-3-(2-{[2-(2-methoxyphenyl)pyrimidin-4-yl]methoxy}phenyl)propanoic acid], the IC50 was 9.48e-10 M in assay [1] (setting [3]) and 0.023 µM in assay [2] (Homo sapiens, NCI-H929, 48 h).
For the molecule `COc1ccccc1CC(Oc1ncnc2sc(-c3cccc(C(F)(F)F)c3)c(-c3ccc(OCCN4CCN(C)CC4)c(Cl)c3C)c12)C(=O)O` [Example 549, (2R)-2-[((5Sa)-5-{3-chloro-2-methyl-4-[2-(4-methylpiperazin-1-yl)ethoxy]phenyl}-6-[3-(trifluoromethyl)phenyl]thieno[2,3-d]pyrimidin-4-yl)oxy]-3-(2-methoxyphenyl)propanoic acid], the 50% inhibitory concentration (IC50) in assay [1] (setting [3]) worked out at 1.3e-07 M; in assay [2] (Homo sapiens, NCI-H929, 48 h), 1.5 µM.
With `Cc1c(-c2c(-c3ccc(F)cc3)sc3ncnc(OC(Cc4ccccc4OCc4cnccn4)C(=O)O)c23)ccc(OCC2CCN(C)C2)c1Cl` [Example 139, (2R)-2-{[(5Sa)-5-(3-chloro-2-methyl-4-{[(3R)-1-methylpyrrolidin-3-yl]methoxy}phenyl)-6-(4-fluorophenyl)thieno[2,3-d]pyrimidin-4-yl]oxy}-3-[2-(pyrazin-2-ylmethoxy)phenyl]propanoic acid], the concentration for half-maximal inhibition (IC50) in assay [1] (setting [4]) turned out to be 8.5e-08 M; in assay [2], 0.636 µM.
Regarding `Cc1c(-c2c(-c3ccc(Cl)o3)sc3ncnc(OC(Cc4ccccc4OCc4ccnn4C)C(=O)O)c23)ccc(OCCN2CCN(C)CC2)c1Cl` [Example 371, (2R)-2-{[6-(5-chlorofuran-2-yl)-(5Sa)-5-{3-chloro-2-methyl-4-[2-(4-methylpiperazin-1-yl)ethoxy]phenyl}thieno[2,3-d]pyrimidin-4-yl]oxy}-3-{2-[(1-methyl-1H-pyrazol-5-yl)methoxy]phenyl}propanoic acid], the half-inhibitory concentration (IC50) in assay [1] (setting [4]) stood at 5.6e-09 M; in assay [2] (Homo sapiens, NCI-H929, 48 h), 0.027 µM.
For `COc1ccccc1CC(Oc1ncnc2sc(-c3csc(Cl)c3)c(-c3ccc(OCCN4CCN(C)CC4)c(Cl)c3C)c12)C(=O)O` [Example 570, (2R)-2-{[(5Sa)-5-{3-chloro-2-methyl-4-[2-(4-methylpiperazin-1-yl)ethoxy]phenyl}-6-(5-chlorothiophen-3-yl)thieno[2,3-d]pyrimidin-4-yl]oxy}-3-(2-methoxyphenyl)propanoic acid], the IC50 in assay [1] (setting [3]) was 2e-08 M; in assay [2] (Homo sapiens, NCI-H929, 48 h), 0.324 µM.
Turning to `Cc1c(-c2c(-c3ccc(F)cc3)sc3ncnc(OC(Cc4ccccc4OCc4ccnc(-c5ccc(Cl)cc5)n4)C(=O)O)c23)ccc(OCCN2CCN(C)CC2)c1Cl` [Example 27, (2R)-2-{[(5Sa)-5-{3-chloro-2-methyl-4-[2-(4-methylpiperazin-1-yl)ethoxy]phenyl}-6-(4-fluorophenyl)thieno[2,3-d]pyrimidin-4-yl]oxy}-3-(2-{[2-(4-chlorophenyl)pyrimidin-4-yl]methoxy}phenyl)propanoic acid], the IC50 in assay [1] (setting [4]) is 6.6e-09 M; in assay [2] (Homo sapiens, NCI-H929, 48 h), 0.045 µM.
The corresponding values for `Cc1c(-c2c(-c3ccco3)sc3ncnc(OC(Cc4ccccc4OCc4ccn(C)n4)C(=O)O)c23)ccc(OCCN2CCN(C)CC2)c1Cl` [Example 246, (2R)-2-{[(5Sa)-5-{3-chloro-2-methyl-4-[2-(4-methylpiperazin-1-yl)ethoxy]phenyl}-6-(furan-2-yl)thieno[2,3-d]pyrimidin-4-yl]oxy}-3-{2-[(1-methyl-1H-pyrazol-3-yl)methoxy]phenyl}propanoic acid] are 9.1e-09 M and 0.324 µM.
As for `Cc1c(-c2c(-c3ccc(F)o3)sc3ncnc(OC(Cc4ccc(F)cc4OCc4cnccn4)C(=O)O)c23)ccc(OCCN2CCN(C)CC2)c1Cl` [Example 691, (2R)-2-{[(5Sa)-5-{3-chloro-2-methyl-4-[2-(4-methylpiperazin-1-yl)ethoxy]phenyl}-6-(5-fluorofuran-2-yl)thieno[2,3-d]pyrimidin-4-yl]oxy}-3-[4-fluoro-2-(pyrazin-2-ylmethoxy)phenyl]propanoic acid], the half-maximal inhibitory concentration (IC50) amounted to 9.6e-09 M in assay [1] (setting [3]) and 0.037 µM in assay [2] (Homo sapiens, NCI-H929, 48 h).
As to `Cc1ccc(-c2nccc(COc3ccccc3CC(Oc3ncnc4sc(-c5ccc(F)cc5)c(-c5ccc(OCCN6CCN(C)CC6)c(Cl)c5C)c34)C(=O)O)n2)cn1` [Example 108, (2R)-2-{[(5Sa)-5-{3-chloro-2-methyl-4-[2-(4-methylpiperazin-1-yl)ethoxy]phenyl}-6-(4-fluorophenyl)thieno[2,3-d]pyrimidin-4-yl]oxy}-3-(2-{[2-(6-methylpyridin-3-yl)pyrimidin-4-yl]methoxy}phenyl)propanoic acid], the IC50 amounted to 3.5e-09 M in assay [1] (setting [4]) and 0.007 µM in assay [2] (Homo sapiens, NCI-H929, 48 h).
The matching figures for `Cc1c(-c2c(-c3ccc(F)o3)sc3ncnc(OC(Cc4ccccc4OCc4cc(C(F)(F)F)ccn4)C(=O)O)c23)ccc(OCCN2CCN(C)CC2)c1Cl` [Example 159, (2R)-2-{[(5Sa)-5-{3-chloro-2-methyl-4-[2-(4-methylpiperazin-1-yl)ethoxy]phenyl}-6-(5-fluorofuran-2-yl)thieno[2,3-d]pyrimidin-4-yl]oxy}-3-(2-{[4-(trifluoromethyl)pyridin-2-yl]methoxy}phenyl)propanoic acid]: 9.8e-09 M and 0.246 µM.
The corresponding values for `COCCOCCOCCOc1ccccc1CC(Oc1ncnc2sc(-c3ccc(F)cc3)c(-c3ccc(OCCN4CCN(C)CC4)c(Cl)c3C)c12)C(=O)O` [Example 106, (2R)-2-{[(5Sa)-5-{3-chloro-2-methyl-4-[2-(4-methylpiperazin-1-yl)ethoxy]phenyl}-6-(4-fluorophenyl)thieno[2,3-d]pyrimidin-4-yl]oxy}-3-(2-{2-[2-(2-methoxyethoxy)ethoxy]ethoxy}phenyl)propanoic acid] are 1.2e-08 M and 0.195 µM.
The corresponding values for `Cc1c(-c2c(-c3ccco3)sc3ncnc(OC(Cc4ccccc4OCc4ccccn4)C(=O)O)c23)ccc(OCCN2CCN(C)CC2)c1Cl` [Example 241, (2R)-2-{[(5Sa)-5-{3-chloro-2-methyl-4-[2-(4-methylpiperazin-1-yl)ethoxy]phenyl}-6-(furan-2-yl)thieno[2,3-d]pyrimidin-4-yl]oxy}-3-[2-(pyridin-2-ylmethoxy)phenyl]propanoic acid] are 5.5e-09 M and 0.074 µM.
Regarding `COc1ccc(C)cc1CC(Oc1ncnc2sc(-c3ccco3)c(-c3ccc(OCCN4CCN(C)CC4)c(Cl)c3C)c12)C(=O)O` [Example 344, (2R)-2-{[(5Sa)-5-{3-chloro-2-methyl-4-[2-(4-methylpiperazin-1-yl)ethoxy]phenyl}-6-(furan-2-yl)thieno[2,3-d]pyrimidin-4-yl]oxy}-3-(2-methoxy-5-methylphenyl)propanoic acid], the IC50 in assay [1] (setting [4]) was 1.6e-08 M; in assay [2] (Homo sapiens, NCI-H929, 48 h), 0.22 µM.

(Values after US9670227B2, “Thienopyrimidine derivatives, a process for their preparation and pharmaceutical compositions containing them” (LES LABORATOIRES SERVIER, priority 2013, dated 2017).)
